Test system: HepG2 cells
Assay: Multiplex rtPCR gene expression time course (15-plex) in treated cells
Format: cell-based
Settings: 5×10^4 HepG2 cells, 25 μM, timepoints T=0, 2, 4, 8, 24, 48, 120 hours, triplicate, FIG. 9
Experimental: Cells were treated in triplicate and timepoints were collected at T=0, 2, 4, 8, 24, 48, and 120 hours. RNA was isolated using Qiagen's RNeasy kit for 96 well plates and the concentration was monitored using a Ribogreen Assay (Molecular Probes). The concentration of RNA from each sample was normalized to 5 ng/μl. rtPCR was carried out using 25 ng of RNA from each sample and the products were analyzed using an ABI 3100 Genetic Analyzer. Gene expression is expressed as a ratio to that of GAPDH. The multiplex included the following list of genes.
CV's for all genes and data points within the experiment ranged from a few percent to 20%.

CC[C@H]1CN2CCc3cc(OC)c(OC)cc3[C@@H]2C[C@@H]1C[C@H]1NCCc2cc(OC)c(OC)cc21 [emitine]
GRO1 gene expression, ratio to that of GAPDH: clear trends of induction
Il-8 gene expression, ratio to that of GAPDH: clear trends of induction

From US7897750B2, “Strategies for gene expression analysis” (Althea Technologies, Inc., priority 2002, dated 2011)
